Assay type in all cases: cell-based
Data set [1] relates to S. mansoni juvenile worms. The experiment in a line: In vitro assay, S. mansoni juvenile worms. The note with it: Schistosoma mansoni, read-out: (b) Juvenile. As to the method: (§1) The routine biological assays using adult or juvenile worms and cytotoxicity assays using MRC-5 cells have been disclosed previously in Mansour, N. R., et al. (2016). “High Throughput Screening Identifies Novel Lead Compounds with Activity against Larval, Juvenile and Schistosoma mansoni PLoS Negl Trap Dis 10(4): e0004659. Cytotoxicity assays using the HepG2 cell line were carried out as described in Molecular Diversity (2015) 19, 251-261.
(b) S. mansoni juvenile worms

Another data set concerns S. mansoni adult worms. The experiment in a line: In vitro assay, S. mansoni adult worms. The note with it: Schistosoma mansoni, read-out: (a) Adult. As to the method: as §1
(a) S. mansoni adult worms

In the next data set the test system is HepG2 cell line. The experiment in a line: Cytotoxicity against human HepG2 cell lines.
Where [2] appears, read: S. mansoni juvenile worms, in vitro.
Where [3] appears, read: S. mansoni adult worms, in vitro.

The record followed here is patent US11046700B2, “Substituted imidazo[1,2-a]pyrazines, pyrazolo[1,5-c]pyrimidines, pyrazolo[1,5-a]pyridines, and purines for the treatment of schistosomiasis” (Merck Patent GmbH, priority 2017, dated 2021).

pIC50: −log10 of the molar value. Where two headings read alike, the source gives them in different places.

As to `CC(C)Oc1cccc(-c2cn3c(-c4ccc5[nH]ncc5c4F)c(C(F)(F)F)nc3cn2)c1` [Example 86, 3-(4-Fluoro-1H-indazol-5-yl)-6-(3-isopropoxy-phenyl)-2-trifluoromethyl-imidazo[1,2-a]pyrazine], the figures for the pIC50 (in data set [1] (setting [2]); in the data set with S. mansoni adult worms (setting [3])) were 7.59 and 7.77, respectively. Also, the “(e) Cytotox HepG2” value in the data set with HepG2 cell line is 13.2 µM.

With `CC(C)c1nc2cnc(-c3cccc(C(F)(F)F)c3)cn2c1-c1ccc(OP(=O)(O)O)cc1F` [Example 3, 3-fluoro-4-[2-(propan-2-yl)-6-[3-(trifluoromethyl)phenyl]imidazo[1,2-a]pyrazin-3-yl]phenoxyphosphonic acid], the pIC50 in data set [1] was 6.89; in the data set on S. mansoni adult worms, over 7.31. Further, the “(e) Cytotox HepG2” value in the data set on HepG2 cell line was 9.2 µM.

In the case of `CC(C)c1cc(-c2cn3c(-c4ccc5[nH]ncc5c4F)c(C(C)C)nc3cn2)ccc1F` [Example 74, 3-(4-Fluoro-1H-indazol-5-yl)-6-(4-fluoro-3-isopropyl-phenyl)-2-isopropyl-imidazo[1,2-a]pyrazine], the pIC50 was 8.30 in data set [1] (setting [2]) and 8.40 with S. mansoni adult worms (setting [3]). The “(e) Cytotox HepG2” value with HepG2 cell line worked out at 11.0 µM.

As for `Oc1cc(F)c(-c2c(C3CC3)nc3cnc(-c4ccc(F)c(S(F)(F)(F)(F)F)c4)cn23)c(F)c1` [Example 56, 4-[2-Cyclopropyl-6-(4-fluoro-3-pentafluorosulfanyl-phenyl)-imidazo[1,2-a]pyrazin-3-yl]-3,5-difluoro-phenol], the results for the pIC50 (in data set [1] (setting [2]); in the data set with S. mansoni adult worms (setting [3])) were 7.70 and 7.72, respectively. Also, in the data set with HepG2 cell line, the “(e) Cytotox HepG2” value was found to be 10.1 µM.

For the compound `CCc1nc2cnc(-c3ccc(F)c(C(C)C)c3)cn2c1-c1ccc2[nH]ncc2c1F` [Example 75, 2-Ethyl-3-(4-fluoro-1H-indazol-5-yl)-6-(4-fluoro-3-isopropyl-phenyl)-imidazo[1,2-a]pyrazine], the pIC50 in data set [1] (setting [2]) was 8.30; in the data set on S. mansoni adult worms (setting [3]), 8.40. Besides, in the data set on HepG2 cell line, the “(e) Cytotox HepG2” value was determined as 11.3 µM.

`Cc1nc2cnc(-c3ccc(F)c(C(F)(F)C(F)(F)F)c3)cn2c1-c1c(F)cc(O)cc1F` [Example 53, 3,5-Difluoro-4-[6-(4-fluoro-3-pentafluoroethyl-phenyl)-2-methyl-imidazo[1,2-a]pyrazin-3-yl]-phenol]: the pIC50 in data set [1] (setting [2]) was 7.70; with S. mansoni adult worms (setting [3]), 7.72. Besides, in the data set with HepG2 cell line, the “(e) Cytotox HepG2” value worked out at 8.8 µM.

For `CC(C)c1cccc(-c2cn3c(-c4ccc5[nH]ncc5c4F)c(C(F)(F)F)nc3cn2)c1` [Example 66, 3-(4-Fluoro-1H-indazol-5-yl)-6-(3-isopropyl-phenyl)-2-trifluoromethyl-imidazo[1,2-a]pyrazine], the pIC50 (in data set [1] (setting [2]); with S. mansoni adult worms (setting [3])) was 8.28 in each case. Further, the “(e) Cytotox HepG2” value with HepG2 cell line stood at 12.9 µM.

Turning to `Cc1nc2cnc(-c3cccc(C(F)(F)C(F)(F)F)c3)cn2c1-c1c(F)cc(O)cc1F` [Example 49, 3,5-difluoro-4-[2-methyl-6-[3-(pentafluoroethyl)phenyl]imidazo[1,2-a]pyrazin-3-yl]phenol], the pIC50 in data set [1] (setting [2]) is 7.46; in the data set on S. mansoni adult worms (setting [3]) it was 7.47. Also, the “(e) Cytotox HepG2” value in the data set with HepG2 cell line came out at 9.3 µM.

`CC(C)c1nc2cnc(-c3cccc(C(F)(F)F)c3)nc2n1-c1ccc(O)cc1F` [Example 90, 3-fluoro-4-[8-(propan-2-yl)-2-[3-(trifluoromethyl)phenyl]-9H-purin-9-yl]phenol]: the results for the pIC50 (in data set [1] (setting [2]); in the data set with S. mansoni adult worms (setting [3])) were 6.33 and 7.11, respectively. Further, the “(e) Cytotox HepG2” value in the data set with HepG2 cell line was found to be 9.3 µM.

As for `CC(C)c1cc(-c2cn3c(-c4ccc5[nH]ncc5c4F)c(C(F)(F)F)nc3cn2)ccn1` [Example 87, 3-(4-Fluoro-1H-indazol-5-yl)-6-(2-isopropyl-pyridin-4-yl)-2-trifluoromethyl-imidazo[1,2-a]pyrazine], the pIC50 in data set [1] (setting [2]) was 7.04; in the data set on S. mansoni adult worms (setting [3]) it was 7.43. Further, the “(e) Cytotox HepG2” value in the data set with HepG2 cell line was found to be 9.5 µM.

For `CC(C)c1cc(-c2cn3c(-c4ccc5[nH]ncc5c4F)c(C4CCC4)nc3cn2)ccc1F` [Example 77, 2-Cyclobutyl-3-(4-fluoro-1H-indazol-5-yl)-6-(4-fluoro-3-isopropyl-phenyl)-imidazo[1,2-a]pyrazine], the results for the pIC50 (in data set [1] (setting [2]); in the data set on S. mansoni adult worms (setting [3])) were 8.40 and 8.15, respectively. Moreover, in the data set with HepG2 cell line, the “(e) Cytotox HepG2” value was determined as 10.8 µM.

On to `CC(C)c1nc2cnc(-c3cccc(C(F)(F)F)c3)cn2c1-c1c(F)cc(O)cc1F` [Example 19, 3,5-difluoro-4-[2-(propan-2-yl)-6-[3-(trifluoromethyl)phenyl]imidazo[1,2-a]pyrazin-3-yl]phenol], for which the pIC50 in data set [1] (setting [2]) is 7.05; in the data set on S. mansoni adult worms (setting [3]) it was 7.38. In the data set on HepG2 cell line, the “(e) Cytotox HepG2” value was determined as 7.5 µM.

For the compound `Fc1c(-c2c(C(F)(F)F)nc3cnc(-c4ccnc(C(F)(F)F)c4)cn23)ccc2[nH]ncc12` [Example 88, 3-(4-Fluoro-1H-indazol-5-yl)-2-trifluoromethyl-6-(2-trifluoromethyl-pyridin-4-yl)-imidazo[1,2-a]pyrazine], the pIC50 is 6.85 in data set [1] (setting [2]) and 6.94 in the data set on S. mansoni adult worms (setting [3]). For the same compound, the “(e) Cytotox HepG2” value in the data set on HepG2 cell line came out at 7.0 µM.

`Fc1ccc(-c2cn3c(-c4ccc5[nH]ncc5c4F)c(C4CC4)nc3cn2)cc1S(F)(F)(F)(F)F` [Example 57, 2-Cyclopropyl-3-(4-fluoro-1H-indazol-5-yl)-6-(4-fluoro-3-pentafluorosulfanyl-phenyl)-imidazo[1,2-a]pyrazine]: the pIC50 is 7.52 in data set [1] (setting [2]) and 7.77 in the data set on S. mansoni adult worms (setting [3]). The “(e) Cytotox HepG2” value with HepG2 cell line was found to be 14.8 µM.

Turning to `Fc1ccc(-c2cn3c(-c4ccc5[nH]ncc5c4F)c(C(F)(F)F)nc3cn2)cc1C1CC1` [Example 84, 6-(3-Cyclopropyl-4-fluoro-phenyl)-3-(4-fluoro-1H-indazol-5-yl)-2-trifluoromethyl-imidazo[1,2-a]pyrazine], the pIC50 in data set [1] (setting [2]) is 7.72; in the data set with S. mansoni adult worms (setting [3]), 7.92. In addition, the “(e) Cytotox HepG2” value in the data set on HepG2 cell line amounted to 10.5 µM.

Regarding `CCc1nc2cnc(-c3cccc(C(F)(F)C(F)(F)F)c3)cn2c1-c1c(F)cc(O)cc1F` [Example 52, 4-[2-Ethyl-6-(3-pentafluoroethyl-phenyl)-imidazo[1,2-a]pyrazin-3-yl]-3,5-difluoro-phenol], the pIC50 is 8.00 in data set [1] (setting [2]) and over 7.92 in the data set with S. mansoni adult worms (setting [3]). In addition, the “(e) Cytotox HepG2” value with HepG2 cell line is 8.0 µM.

Turning to `CC(C)Oc1cc(-c2cn3c(-c4ccc5[nH]ncc5c4F)c(C(F)(F)F)nc3cn2)ccc1F` [Example 81, 3-(4-Fluoro-1H-indazol-5-yl)-6-(4-fluoro-3-isopropoxy-phenyl)-2-trifluoromethyl-imidazo[1,2-a]pyrazine], the pIC50 in data set [1] (setting [2]) is 7.92; with S. mansoni adult worms (setting [3]), 7.96. In the data set on HepG2 cell line, the “(e) Cytotox HepG2” value is 9.2 µM.

Turning to `CCc1nn2cnc(-c3ccc(F)c(C(F)(F)F)c3)cc2c1-c1c(F)cc(O)cc1F` [Example 48, 4-(2-ethyl-5-(4-fluoro-3-(trifluoromethyl)phenyl)pyrazolo[1,5-c]pyrimidin-3-yl)-3,5-difluorophenol], the pIC50 was 7.49 in data set [1] (setting [2]) and 7.96 with S. mansoni adult worms (setting [3]). For the same compound, the “(e) Cytotox HepG2” value in the data set on HepG2 cell line came to 9.8 µM.

Regarding `Fc1ccc(-c2cn3c(-c4ccc5[nH]ncc5c4F)c(C(F)(F)F)nc3cn2)cc1S(F)(F)(F)(F)F` [Example 65, 3-(4-Fluoro-1H-indazol-5-yl)-6-(4-fluoro-3-pentafluorosulfanyl-phenyl)-2-trifluoromethyl-imidazo[1,2-a]pyrazine], the pIC50 in data set [1] (setting [2]) is 7.96; in the data set on S. mansoni adult worms (setting [3]) it was 7.36. Besides, in the data set with HepG2 cell line, the “(e) Cytotox HepG2” value is 11.1 µM.

Consider `CC(C)c1nn2cnc(-c3ccc(F)c(C(F)(F)F)c3)cc2c1-c1c(F)cc(O)cc1F` [Example 47, 3,5-difluoro-4-(5-(4-fluoro-3-(trifluoromethyl)phenyl)-2-isopropylpyrazolo[1,5-c]pyrimidin-3-yl)phenol], for which the pIC50 in data set [1] (setting [2]) is 7.57; with S. mansoni adult worms (setting [3]) it was 7.66. Further, in the data set on HepG2 cell line, the “(e) Cytotox HepG2” value was determined as 8.9 µM.

`CC(C)c1nc2cnc(-c3ccc(F)c(C(F)(F)F)c3)cn2c1-c1c(F)cc(OP(=O)(O)O)cc1F` [Example 40, 3,5-difluoro-4-{6-[4-fluoro-3-(trifluoromethyl)phenyl]-2-(propan-2-yl)imidazo[1,2-a]pyrazin-3-yl}phenoxyphosphonic acid]: the figures for the pIC50 (in data set [1]; with S. mansoni adult worms) were 7.60 and 7.57, respectively. Besides, the “(e) Cytotox HepG2” value in the data set with HepG2 cell line was 6.5 µM.

In the case of `Fc1c(-c2c(C3CC3)nc3cnc(-c4cccc(S(F)(F)(F)(F)F)c4)cn23)ccc2[nH]ncc12` [Example 46, 2-cyclopropyl-3-(4-fluoro-1H-indazol-5-yl)-6-(3-(pentafluoro-λ6-sulfaneyl)phenyl)imidazo[1,2-a]pyrazine], the pIC50 in data set [1] (setting [2]) is 7.44. Also, the “(e) Cytotox HepG2” value with HepG2 cell line amounted to 20.7 µM.

Regarding `Cc1nc2cnc(-c3cccc(C(F)(F)F)c3)cn2c1-c1c(F)cc(O)cc1F` [Example 15, 3,5-difluoro-4-[2-methyl-6-[3-(trifluoromethyl)phenyl]imidazo[1,2-a]pyrazin-3-yl]phenol], the pIC50 in data set [1] (setting [2]) was 6.77. Besides, in the data set with HepG2 cell line, the “(e) Cytotox HepG2” value worked out at 8.4 µM.

As for `O=P(O)(O)Oc1cc(F)c(-c2c(C3CC3)nc3cnc(-c4ccc(F)c(C(F)(F)F)c4)cn23)c(F)c1` [Example 62, Phosphoric acid mono-{4-[2-cyclopropyl-6-(4-fluoro-3-trifluoromethyl-phenyl)-imidazo[1,2-a]pyrazin-3-yl]-3,5-difluoro-phenyl}ester], the pIC50 in data set [1] is 8.43. The “(e) Cytotox HepG2” value with HepG2 cell line is 14.8 µM.

As for `CCc1nc2cnc(-c3ccc(F)c(C(F)(F)F)c3)cn2c1-c1ccc2[nH]ncc2c1F` [Example 37, 4-fluoro-5-{2-ethyl-6-[4-fluoro-3-(trifluoromethyl)phenyl]imidazo[1,2-a]pyrazin-3-yl}-1H-indazole], the pIC50 in data set [1] (setting [2]) was 6.96. Besides, the “(e) Cytotox HepG2” value with HepG2 cell line is 13.1 µM.
